# Measurements taken from ChEMBL document CHEMBL4308841, “Synthesis, in vitro antiproliferative activity, and kinase inhibitory effects of pyrazole-containing diarylureas and diarylamides” (Eur J Med Chem, 2018).
# Key:
# SN12C = experiment: Growth inhibition of human SN12C cells assessed as cell growth at 10 uM incubated for 48 hrs by sulforhodamine B assay relative to control; format: functional; conditions: read-out: Activity
# Malme-3M = experiment: Growth inhibition of human MALME-3M cells assessed as cell growth at 10 uM incubated for 48 hrs by sulforhodamine B assay relative to control; format: functional; conditions: read-out: Activity
# NCI-H23 = experiment: Growth inhibition of human NCI-H23 cells assessed as cell growth at 10 uM incubated for 48 hrs by sulforhodamine B assay relative to control; format: functional; conditions: NCI-H23, 48 h, read-out: Activity
# COLO 205 = experiment: Growth inhibition of human COLO205 cells assessed as cell growth at 10 uM incubated for 48 hrs by sulforhodamine B assay relative to control; format: functional; conditions: COLO 205, 48 h, read-out: Activity
# M14 = experiment: Growth inhibition of human M14 cells assessed as cell growth at 10 uM incubated for 48 hrs by sulforhodamine B assay relative to control; format: functional; conditions: M14, 48 h, read-out: Activity
# SW-620 = experiment: Growth inhibition of human SW620 cells assessed as cell growth at 10 uM incubated for 48 hrs by sulforhodamine B assay relative to control; format: functional; conditions: SW-620, 48 h, read-out: Activity
# PC-3 = experiment: Growth inhibition of human PC3 cells assessed as cell growth at 10 uM incubated for 48 hrs by sulforhodamine B assay relative to control; format: functional; conditions: PC-3, 48 h, read-out: Activity
# NCI/ADR-RES = experiment: Growth inhibition of human NCI/ADR-RES cells assessed as cell growth at 10 uM incubated for 48 hrs by sulforhodamine B assay relative to control; format: functional; conditions: read-out: Activity
# SF-539 [1] = experiment: Growth inhibition of human SF539 cells assessed as cell growth at 1 uM incubated for 48 hrs by sulforhodamine B assay relative to control; format: functional; conditions: SF-539, 48 h, read-out: Activity
# OVCAR-3 = experiment: Growth inhibition of human OVCAR3 cells assessed as cell growth at 10 uM incubated for 48 hrs by sulforhodamine B assay relative to control; format: functional; conditions: OVCAR-3, 48 h, read-out: Activity
# Hs-578T [2] = experiment: Growth inhibition of human Hs578T cells assessed as cell growth at 10 uM incubated for 48 hrs by sulforhodamine B assay relative to control; format: functional; conditions: read-out: Activity
# ACHN = experiment: Growth inhibition of human ACHN cells assessed as cell growth at 10 uM incubated for 48 hrs by sulforhodamine B assay relative to control; format: functional; conditions: read-out: Activity
# HOP-62 = experiment: Growth inhibition of human HOP62 cells incubated for 48 hrs by sulforhodamine B assay; format: functional, cell-based; conditions: HOP-62, 48 h
# DU-145 = experiment: Growth inhibition of human DU145 cells assessed as cell growth at 100 uM incubated for 48 hrs by sulforhodamine B assay relative to control; format: functional; conditions: DU-145, 48 h, read-out: Activity
# 786-0 = experiment: Growth inhibition of human 786-0 cells assessed as cell growth at 10 uM incubated for 48 hrs by sulforhodamine B assay relative to control; format: functional; conditions: 786-0, 48 h, read-out: Activity
# MCF7 = experiment: Growth inhibition of human MCF7 cells assessed as cell growth at 10 uM incubated for 48 hrs by sulforhodamine B assay relative to control; format: functional; conditions: MCF7, 48 h, read-out: Activity
# SF-539 [3] = experiment: Growth inhibition of human SF539 cells assessed as cell growth at 0.01 uM incubated for 48 hrs by sulforhodamine B assay relative to control; format: functional; conditions: SF-539, 48 h, read-out: Activity
# BT-549 = experiment: Growth inhibition of human BT549 cells assessed as cell growth at 10 uM incubated for 48 hrs by sulforhodamine B assay relative to control; format: functional; conditions: BT-549, 48 h, read-out: Activity
# LOX IMVI = experiment: Growth inhibition of human LOXIMVI cells incubated for 48 hrs by sulforhodamine B assay; format: functional
# HL-60(TB) = experiment: Growth inhibition of human HL-60(TB) cells assessed as cell growth at 10 uM incubated for 48 hrs by sulforhodamine B assay relative to control; format: functional; conditions: HL-60, 48 h, read-out: Activity
# SF-268 = experiment: Growth inhibition of human SF268 cells assessed as cell growth at 10 uM incubated for 48 hrs by sulforhodamine B assay relative to control; format: functional; conditions: SF-268, 48 h, read-out: Activity
# SK-MEL-28 = experiment: Growth inhibition of human SK-MEL-28 cells assessed as cell growth at 10 uM incubated for 48 hrs by sulforhodamine B assay relative to control; format: functional; conditions: SK-MEL-28, 48 h, read-out: Activity
# Hs-578T [4] = experiment: Growth inhibition of human Hs578T cells assessed as cell growth at 100 uM incubated for 48 hrs by sulforhodamine B assay relative to control; format: functional; conditions: read-out: Activity
# U-251 = experiment: Growth inhibition of human U251 cells assessed as cell growth at 0.1 uM incubated for 48 hrs by sulforhodamine B assay relative to control; format: functional; conditions: U-251, 48 h, read-out: Activity
# A498 = experiment: Growth inhibition of human A498 cells assessed as cell growth at 10 uM incubated for 48 hrs by sulforhodamine B assay relative to control; format: functional; conditions: A498, 48 h, read-out: Activity
# MDA-MB-435 = experiment: Growth inhibition of human MDA-MB-435 cells assessed as cell growth at 0.1 uM incubated for 48 hrs by sulforhodamine B assay relative to control; format: functional; conditions: MDA-MB-435, 48 h, read-out: Activity
# RXF 393 = experiment: Growth inhibition of human RXF393 cells assessed as cell growth at 10 uM incubated for 48 hrs by sulforhodamine B assay relative to control; format: functional; conditions: RXF 393, 48 h, read-out: Activity
# SNB-19 [5] = experiment: Growth inhibition of human SNB19 cells assessed as cell growth at 1 uM incubated for 48 hrs by sulforhodamine B assay relative to control; format: functional; conditions: SNB-19, 48 h, read-out: Activity
# RPMI-8226 = experiment: Growth inhibition of human RPMI8226 cells incubated for 48 hrs by sulforhodamine B assay; format: functional, cell-based; conditions: RPMI-8226, 48 h
# KM12 = experiment: Growth inhibition of human KM12 cells assessed as cell growth at 10 uM incubated for 48 hrs by sulforhodamine B assay relative to control; format: functional; conditions: KM12, 48 h, read-out: Activity
# SNB-19 [6] = experiment: Growth inhibition of human SNB19 cells assessed as cell growth at 10 uM incubated for 48 hrs by sulforhodamine B assay relative to control; format: functional; conditions: SNB-19, 48 h, read-out: Activity
# A549 = experiment: Growth inhibition of human A549/ATCC cells assessed as cell growth at 10 uM incubated for 48 hrs by sulforhodamine B assay relative to control; format: functional; conditions: A549, 48 h, read-out: Activity
# [7] = read-out: LC50 (the source's name)
# [8] = read-out: pLC50 (the source's name) (converted)
smiles,measurement,setting,value
COc1cc(Cl)cc(-c2nn(-c3cccc(NC(=O)Nc4ccc(Cl)c(Cl)c4)c3)cc2-c2ccncc2)c1,growth at 10 µM,SN12C,15.5%
same,growth at 10 µM,Malme-3M,-19.8%
same,growth at 10 µM,NCI-H23,5.72%
same,growth at 10 µM,COLO 205,-70.3%
same,growth at 10 µM,M14,18.7%
same,growth at 10 µM,SW-620,13.3%
same,growth at 10 µM,PC-3,-5.03%
same,growth at 10 µM,NCI/ADR-RES,8.59%
same,growth at 1 µM,SF-539 [1],82%
same,growth at 10 µM,OVCAR-3,4.11%
same,growth at 10 µM,Hs-578T [2],28.5%
same,growth at 10 µM,ACHN,9.65%
same,GI50,HOP-62; read-out: GI50,3.36 µM
same,CC50,HOP-62; [7],> 100 µM
same,TGI,HOP-62; read-out: TGI,35.1 µM
same,GI50,HOP-62; read-out: pGI50 (converted),3.39 µM
same,CC50,HOP-62; [8],> 100 µM
same,TGI,HOP-62; read-out: pTGI (converted),35.5 µM
same,growth at 100 µM,DU-145,13%
same,growth at 10 µM,786-0,19.6%
same,growth at 10 µM,MCF7,4.66%
same,growth at 0.01 µM,SF-539 [3],100%
same,growth at 10 µM,BT-549,29.4%
same,GI50,LOX IMVI; read-out: GI50,2.91 µM
same,CC50,LOX IMVI; [7],> 100 µM
same,TGI,LOX IMVI; read-out: TGI,12.4 µM
same,GI50,LOX IMVI; read-out: pGI50 (converted),2.88 µM
same,CC50,LOX IMVI; [8],> 100 µM
same,TGI,LOX IMVI; read-out: pTGI (converted),30.9 µM
same,growth at 10 µM,HL-60(TB),-5.12%
same,growth at 10 µM,SF-268,25.3%
same,growth at 10 µM,SK-MEL-28,23.2%
same,growth at 100 µM,Hs-578T [4],28%
same,growth at 0.1 µM,U-251,92%
same,growth at 10 µM,A498,-9.54%
same,growth at 0.1 µM,MDA-MB-435,99%
same,growth at 10 µM,RXF 393,4.46%
same,growth at 1 µM,SNB-19 [5],89%
same,IC50,RPMI-8226,0.65 µM
same,GI50,RPMI-8226; read-out: GI50,0.652 µM
same,CC50,RPMI-8226; [7],> 100 µM
same,TGI,RPMI-8226; read-out: TGI,33.7 µM
same,CC50,RPMI-8226; [8],> 100 µM
same,growth at 10 µM,KM12,14.3%
same,growth at 10 µM,SNB-19 [6],17.8%
same,growth at 10 µM,A549,11.3%
COc1cc(Cl)cc(-c2nn(-c3cccc(NC(=O)Nc4cccc(C(F)(F)F)c4)c3)cc2-c2ccncc2)c1,growth at 10 µM,SN12C,13.9%
same,growth at 10 µM,Malme-3M,-16.6%
same,growth at 10 µM,NCI-H23,-5.1%
same,growth at 10 µM,COLO 205,-31.2%
same,growth at 10 µM,M14,9.99%
same,growth at 10 µM,SW-620,11.2%
same,growth at 10 µM,PC-3,-9.92%
same,growth at 10 µM,NCI/ADR-RES,3.58%
same,growth at 1 µM,SF-539 [1],84%
same,growth at 10 µM,OVCAR-3,-0.41%
same,growth at 10 µM,Hs-578T [2],23.1%
same,growth at 10 µM,ACHN,5.44%
same,GI50,HOP-62; read-out: GI50,2.51 µM
same,CC50,HOP-62; [7],> 100 µM
same,TGI,HOP-62; read-out: TGI,13.1 µM
same,GI50,HOP-62; read-out: pGI50 (converted),2.82 µM
same,CC50,HOP-62; [8],> 100 µM
same,TGI,HOP-62; read-out: pTGI (converted),13.2 µM
same,growth at 100 µM,DU-145,7%
same,growth at 10 µM,786-0,13.2%
same,growth at 10 µM,MCF7,0.3%
same,growth at 0.01 µM,SF-539 [3],100%
same,growth at 10 µM,BT-549,12.9%
same,GI50,LOX IMVI; read-out: GI50,1.51 µM
same,CC50,LOX IMVI; [7],82.8 µM
same,TGI,LOX IMVI; read-out: TGI,70.4 µM
same,GI50,LOX IMVI; read-out: pGI50 (converted),1.82 µM
same,CC50,LOX IMVI; [8],83.2 µM
same,TGI,LOX IMVI; read-out: pTGI (converted),7.08 µM
same,growth at 10 µM,HL-60(TB),-7.89%
same,growth at 10 µM,SF-268,27.9%
same,growth at 10 µM,SK-MEL-28,14.1%
same,growth at 100 µM,Hs-578T [4],21%
same,growth at 0.1 µM,U-251,93%
same,growth at 10 µM,A498,-6.74%
same,growth at 0.1 µM,MDA-MB-435,97%
same,growth at 10 µM,RXF 393,11.8%
same,growth at 1 µM,SNB-19 [5],77%
same,IC50,RPMI-8226,0.43 µM
same,GI50,RPMI-8226; read-out: GI50,0.43 µM
same,CC50,RPMI-8226; [7],> 100 µM
same,TGI,RPMI-8226; read-out: TGI,23 µM
same,GI50,RPMI-8226; read-out: pGI50 (converted),0.427 µM
same,CC50,RPMI-8226; [8],> 100 µM
same,TGI,RPMI-8226; read-out: pTGI (converted),2.29 µM
same,growth at 10 µM,KM12,9.81%
same,growth at 10 µM,SNB-19 [6],16.1%
same,growth at 10 µM,A549,8.08%
